Experimental data published in PMC10096391, “Discovery of N,4-Di(1H-pyrazol-4-yl)pyrimidin-2-amine-Derived CDK2 Inhibitors as Potential Anticancer Agents: Design, Synthesis, and Evaluation” (Molecules, 2023).

How the values were obtained:
CDK9/cyclin T1 (CDK9T1) = CDK9/cyclin T1 (CDK9T1) (Homo sapiens, UniProt P50750); test: ADP-Glo kinase assay, CDK9/cyclin T1; format: biochemical; settings: for Ki: apparent Ki from IC50, ADP-Glo; for inhibition at 1 µM: read-out: % Enzymatic Inhibition at 1 µM CDK9T1
Experimental: (§1) The luminescent ADP-Glo™ assay, which measures the amount of ADP formed in a kinase reaction as described previously, was used to determine the kinase inhibition profile of the compounds. […] Ki values were calculated from their corresponding IC50 values (the concentrations of inhibitors that inhibit the kinase activity by 50%) and the Michaelis–Menten constant (Km) of ATP for each kinase using the Cheng–Prusoff equation as previously stated. In brief, 1 μL of each concentration of the test compounds was added to the respective wells, and to it were added 1 μL of the kinases and their respective substrates, diluted to the desired concentration in kinase reaction buffer ([…] tris base pH 7.5, 20 mM MgCl2, 0.4 µM dithiothreitol, and 0.1 mg/mL bovine serum albumin), and the pH was adjusted by adding 1 μL of a two-fold diluted kinase reaction buffer. To initiate the kinase activity, 1 μL of ATP solution (the concentration varies depending on the type of kinase under investigation) was added to each well, and the mixture was incubated at room temperature (20 to 22 °C) for 30–60 min depending on the kinase being tested. The reaction was then halted, 5 μL of the ADP-Glo reagent was added to each well (removing any unreacted ATP), and it was incubated at room temperature for 40 min. […] Positive controls (the wells without the inhibitor) and negative or blank controls (the wells without the inhibitor and the enzyme, but with 1 × kinase reaction buffer) were also determined in 2.5% DMSO.
(§2) The percentage of kinase inhibition was determined using the following equation: % Residual kinase activity=Luminescence in the presence of inhibitor−Luminescence of blank control/Luminescence in the absence of inhibitor−Luminescence of blank control×100%%kinase inhbition=100%−%Residual kinase activity
(§3) Km is defined as the concentration of ATP or the substrate required to produce 50% of the maximal reaction rate in the kinase reaction. Therefore, since we used the concentration of ATP and the substrate at their Km values, Ki simply equals IC50/2 assuming these inhibitors are ATP-competitive based on the Cheng–Prusoff equation: Ki = IC50/(1 + ([ATP]/Km(ATP))) where [ATP] is the ATP concentration used for the IC50 determination and Km(ATP) for each kinase was determined experimentally.

[1] = tested on: A2780 ovarian cancer cells; test: 72 h MTT antiproliferative assay, A2780; format: cell-based; settings: for GI50 / inhibition at 1 µM: Homo sapiens, A2780, 72 h MTT; for inhibition at 1 µM: read-out: % Growth Inhibition (GI) at 1 µM A2780
Description: Cancer cell lines derived from leukemia (MV4-11 and U937), breast (MCF7 (Rb-positive) and MDA-MB-231(Rb-negative)), and ovarian (A2780, OVCAR5, OAW28, OV90, Cov318, and Cov504) cancers, and glioblastoma (U87, T98G and U251) were acquired from the cell bank at Drug Discovery and Development, University of South Australia, and cultured according to the American Type Culture Collection (ATCC) recommendation in Roswell Park Memorial Institute (RPMI)-1640, Dulbecco’s Modified Eagle’s Medium (DMEM), or Minimum Essential Media (MEM), with 10% fetal bovine serum (Sigma-Aldrich, Castle Hill, NSW, Australia) within a humidified incubator at 37 °C in the presence of 5% CO2.
The MTT (Life Technologies, Mulgrave, VIC, Australia) and resazurin (Sigma-Aldrich) assays were used to determine the antiproliferative activities of the compounds initially at 1 µM against the cancer cell lines stated above.

CDK5/p25 (CDK5p25) = CDK5/p25 (CDK5p25) (Homo sapiens, UniProt Q00535); test: ADP-Glo kinase assay, CDK5/p25; format: biochemical; settings: for Ki: apparent Ki from IC50, ADP-Glo; for inhibition at 1 µM: read-out: % Enzymatic Inhibition at 1 µM CDK5p25
Experimental: as §1, §2, §3

CDK2/cyclin E (CDK2E) = CDK2/cyclin E (CDK2E) (Homo sapiens, UniProt P24941); test: ADP-Glo kinase assay, CDK2/cyclin E; format: biochemical; settings: for Ki: apparent Ki from IC50, ADP-Glo; for inhibition at 1 µM: read-out: % Enzymatic Inhibition at 1 µM CDK2E
Experimental: (§4) The luminescent ADP-Glo™ assay, which measures the amount of ADP formed in a kinase reaction as described previously, was used to determine the kinase inhibition profile of the compounds. […] Ki values were calculated from their corresponding IC50 values (the concentrations of inhibitors that inhibit the kinase activity by 50%) and the Michaelis–Menten constant (Km) of ATP for each kinase using the Cheng–Prusoff equation as previously stated. In brief, 1 μL of each concentration of the test compounds was added to the respective wells, and to it were added 1 μL of the kinases and their respective substrates, diluted to the desired concentration in kinase reaction buffer ([…] tris base pH 7.5, 20 mM MgCl2, 0.4 µM dithiothreitol, and 0.1 mg/mL bovine serum albumin), and the pH was adjusted by adding 1 μL of a two-fold diluted kinase reaction buffer. To initiate the kinase activity, 1 μL of ATP solution (the concentration varies depending on the type of kinase under investigation) was added to each well, and the mixture was incubated at room temperature (20 to 22 °C) for 30–60 min depending on the kinase being tested. The reaction was then halted, 5 μL of the ADP-Glo reagent was added to each well (removing any unreacted ATP), and it was incubated at room temperature for 40 min. Then, to each well, 10 μL of the kinase detection reagent containing luciferin was added, which was incubated once more at room temperature in the dark for 30 min and the luminescence was measured by an EnVision® multi-label plate reader with an integration time of 1.5 s per well. Positive controls (the wells without the inhibitor) and negative or blank controls (the wells without the inhibitor and the enzyme, but with 1 × kinase reaction buffer) were also determined in 2.5% DMSO.
as §2, §3

CDK1/cyclin B (CDK1B) = CDK1/cyclin B (CDK1B) (Homo sapiens, UniProt P06493); test: ADP-Glo kinase assay, CDK1/cyclin B; format: biochemical; settings: for Ki: apparent Ki from IC50, ADP-Glo; for inhibition at 1 µM: read-out: % Enzymatic Inhibition at 1 µM CDK1B
Experimental: as §4, §2, §3

Sequence of CDK9/cyclin T1 (CDK9T1) (P50750 whole entry): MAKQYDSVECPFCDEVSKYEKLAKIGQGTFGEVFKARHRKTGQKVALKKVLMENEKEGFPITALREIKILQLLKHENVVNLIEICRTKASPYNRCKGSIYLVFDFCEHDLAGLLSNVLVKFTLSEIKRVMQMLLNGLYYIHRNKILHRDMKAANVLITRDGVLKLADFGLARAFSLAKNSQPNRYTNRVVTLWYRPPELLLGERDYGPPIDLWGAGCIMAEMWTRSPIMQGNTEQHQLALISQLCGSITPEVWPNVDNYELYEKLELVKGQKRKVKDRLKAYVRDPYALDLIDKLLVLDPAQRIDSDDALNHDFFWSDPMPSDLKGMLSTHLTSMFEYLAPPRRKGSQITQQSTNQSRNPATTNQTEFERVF
Sequence of CDK9/cyclin T1 (CDK9T1) (O60563 whole entry partner): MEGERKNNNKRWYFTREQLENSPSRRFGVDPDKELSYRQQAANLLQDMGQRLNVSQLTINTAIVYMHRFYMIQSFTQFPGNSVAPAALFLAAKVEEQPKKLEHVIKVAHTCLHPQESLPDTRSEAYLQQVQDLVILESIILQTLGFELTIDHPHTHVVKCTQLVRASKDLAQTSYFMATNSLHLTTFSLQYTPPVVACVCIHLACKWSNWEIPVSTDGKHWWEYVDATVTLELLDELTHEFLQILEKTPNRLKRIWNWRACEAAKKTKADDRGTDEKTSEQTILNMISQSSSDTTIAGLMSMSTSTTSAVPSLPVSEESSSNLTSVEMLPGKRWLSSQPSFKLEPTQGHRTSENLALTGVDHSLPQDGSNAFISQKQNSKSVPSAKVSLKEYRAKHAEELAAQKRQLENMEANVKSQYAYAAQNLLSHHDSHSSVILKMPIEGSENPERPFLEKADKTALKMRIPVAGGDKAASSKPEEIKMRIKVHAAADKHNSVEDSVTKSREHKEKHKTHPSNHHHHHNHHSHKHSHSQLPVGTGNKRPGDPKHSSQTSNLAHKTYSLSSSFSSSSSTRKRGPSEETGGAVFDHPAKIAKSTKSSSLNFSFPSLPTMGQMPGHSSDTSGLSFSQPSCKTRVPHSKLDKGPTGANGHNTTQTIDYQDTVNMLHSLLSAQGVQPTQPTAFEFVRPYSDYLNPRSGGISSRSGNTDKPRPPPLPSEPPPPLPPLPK
Sequence of CDK5/p25 (CDK5p25) (Q00535 whole entry): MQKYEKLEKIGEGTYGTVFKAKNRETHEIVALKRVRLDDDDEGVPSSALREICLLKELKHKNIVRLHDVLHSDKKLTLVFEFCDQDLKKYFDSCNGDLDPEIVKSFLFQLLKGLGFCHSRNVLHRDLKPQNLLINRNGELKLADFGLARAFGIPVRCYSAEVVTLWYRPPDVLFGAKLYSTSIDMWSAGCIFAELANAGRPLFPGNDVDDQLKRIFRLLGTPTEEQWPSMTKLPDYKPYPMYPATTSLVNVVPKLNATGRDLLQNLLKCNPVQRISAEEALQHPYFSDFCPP
Sequence of CDK5/p25 (CDK5p25) (Q15078 99-307 partner limits assumed): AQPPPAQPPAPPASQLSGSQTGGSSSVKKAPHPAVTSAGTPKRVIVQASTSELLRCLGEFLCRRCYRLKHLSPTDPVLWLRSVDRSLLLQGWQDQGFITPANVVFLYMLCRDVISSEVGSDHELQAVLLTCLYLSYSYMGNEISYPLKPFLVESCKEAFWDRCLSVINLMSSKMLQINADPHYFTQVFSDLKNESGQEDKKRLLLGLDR
Sequence of CDK1/cyclin B (CDK1B) (P06493 whole entry): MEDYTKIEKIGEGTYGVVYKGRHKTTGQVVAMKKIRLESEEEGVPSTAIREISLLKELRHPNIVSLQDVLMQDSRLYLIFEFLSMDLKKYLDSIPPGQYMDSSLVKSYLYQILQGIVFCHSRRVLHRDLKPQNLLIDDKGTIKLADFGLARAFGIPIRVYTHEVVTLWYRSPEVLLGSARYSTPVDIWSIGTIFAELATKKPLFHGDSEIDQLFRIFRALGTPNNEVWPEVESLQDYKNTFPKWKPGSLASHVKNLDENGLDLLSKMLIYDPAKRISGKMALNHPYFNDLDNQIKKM
Sequence of CDK1/cyclin B (CDK1B) (P14635 whole entry partner): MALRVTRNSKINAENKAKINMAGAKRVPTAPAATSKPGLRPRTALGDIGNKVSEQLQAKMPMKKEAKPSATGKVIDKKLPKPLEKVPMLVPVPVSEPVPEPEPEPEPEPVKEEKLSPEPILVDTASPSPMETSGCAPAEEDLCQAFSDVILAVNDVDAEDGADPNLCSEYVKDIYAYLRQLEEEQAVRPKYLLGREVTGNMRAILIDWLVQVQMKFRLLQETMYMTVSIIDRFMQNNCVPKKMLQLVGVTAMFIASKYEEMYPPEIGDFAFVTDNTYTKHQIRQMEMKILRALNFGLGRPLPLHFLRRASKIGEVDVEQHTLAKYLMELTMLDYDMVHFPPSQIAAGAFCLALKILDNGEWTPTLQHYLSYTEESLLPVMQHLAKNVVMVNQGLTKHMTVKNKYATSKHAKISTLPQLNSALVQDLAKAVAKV

SMILES	Ki (CDK9/cyclin T1 (CDK9T1)) [µM]	GI50 [1] [µM]	fold lower antiproliferative activity against A2780 compared to 1 ([1]; versus 1)	Ki (CDK5/p25 (CDK5p25)) [µM]	Ki (CDK2/cyclin E (CDK2E)) [µM]	Ki (CDK1/cyclin B (CDK1B)) [µM]	inhibition at 1 µM [1] [%]	inhibition at 1 µM (CDK2/cyclin E (CDK2E)) [%]	inhibition at 1 µM (CDK9/cyclin T1 (CDK9T1)) [%]	fold less potent antiproliferative activity against A2780 than 15 ([1]; versus 15, GI50 ratio) [fold]	fold reduced CDK2 inhibition compared to 15 (CDK2/cyclin E (CDK2E); versus 15, Ki ratio) [fold]	inhibition at 1 µM (CDK1/cyclin B (CDK1B)) [%]	inhibition at 1 µM (CDK5/p25 (CDK5p25)) [%]
Cn1cc(-c2nc(Nc3cn[nH]c3)ncc2F)cn1 [Compound 14, 5-Fluoro-4-(1-methyl-1H-pyrazol-4-yl)-N-(1H-pyrazol-4-yl)pyrimidin-2-amine]	0.016	0.498	about 28 fold	0.003	0.007	0.018							
Cn1cc(Nc2ncc(F)c(-c3cnn(C)c3)n2)cn1 [Compound 16, 5-Fluoro-N,4-bis(1-methyl-1H-pyrazol-4-yl)pyrimidin-2-amine]	0.098			0.018	0.023	0.092	9	97					
Cn1cc(Nc2ncc(Cl)c(-c3cnn(C)c3)n2)cn1 [Compound 17, 5-Chloro-N,4-bis(1-methyl-1H-pyrazol-4-yl)pyrimidin-2-amine]		1.02			0.011	0.034	87						
Cn1cc(-c2nc(Nc3cnn(CC(N)=O)c3)ncc2F)cn1 [Compound 18, 2-(4-((5-Fluoro-4-(1-methyl-1H-pyrazol-4-yl)pyrimidin-2-yl)amino)-1H-pyrazol-1-yl)acetamide]				0.193	0.085	0.112	0		68				
Cn1cc(-c2nc(Nc3cnn(CC(N)=O)c3)ncc2Cl)cn1 [Compound 19, 2-(4-((5-Chloro-4-(1-methyl-1H-pyrazol-4-yl)pyrimidin-2-yl)amino)-1H-pyrazol-1-yl)acetamide]	0.101			0.052	0.025	0.018	44						
Cc1nn(C)cc1-c1nc(Nc2cnn(C)c2)ncc1F [Compound 20, 4-(1,3-Dimethyl-1H-pyrazol-4-yl)-5-fluoro-N-(1-methyl-1H-pyrazol-4-yl)pyrimidin-2-amine]	0.343			0.018	0.026	0.164	7						
Cc1nn(C)cc1-c1nc(Nc2cnn(C)c2)ncc1Cl [Compound 21, 5-Chloro-4-(1,3-dimethyl-1H-pyrazol-4-yl)-N-(1-methyl-1H-pyrazol-4-yl)pyrimidin-2-amine]	0.062			0.035	0.023	0.225	8						
Cn1cc(-c2nc(Nc3ccn[nH]3)ncc2Cl)cn1 [Compound 23, 5-Chloro-4-(1-methyl-1H-pyrazol-4-yl)-N-(1H-pyrazol-5-yl)pyrimidin-2-amine]		7.35		0.04	0.09				40	47	18	9	
Cn1cc(-c2nc(Nc3nccs3)ncc2Cl)cn1 [Compound 25, N-(5-Chloro-4-(1-methyl-1H-pyrazol-4-yl)pyrimidin-2-yl)thiazol-2-amine]				0.177			9	46	31			31	
Cn1cc(Nc2ncc(F)c(-c3cnn(CCN4CCOCC4)c3)n2)cn1 [Compound 31, 5-Fluoro-N-(1-methyl-1H-pyrazol-4-yl)-4-(1-(2-morpholinoethyl)-1H-pyrazol-4-yl)pyrimidin-2-amine]							0	48	24			26	43
Cn1cc(Nc2ncc(Cl)c(-c3cnn(CCN4CCOCC4)c3)n2)cn1 [Compound 32, 5-Chloro-N-(1-methyl-1H-pyrazol-4-yl)-4-(1-(2-morpholinoethyl)-1H-pyrazol-4-yl)pyrimidin-2-amine]				0.126	0.252		3		21			36	
Cn1cc(Nc2ncc(F)c(-c3ccnn3C)n2)cn1 [Compound 35, 5-Fluoro-N-(1-methyl-1H-pyrazol-4-yl)-4-(1-methyl-1H-pyrazol-5-yl)pyrimidin-2-amine]							19	64	45			49	58
